Assay: Western blot analysis for "B" compounds
Type: cell-based
Settings: read-out: Traditional Western Degradation Potency (DC50)
Method in brief: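 Compound-treated cells lysed in RIPA buffer with protease inhibitors; equal protein (BCA) run on 10% SDS-PAGE, transferred to PVDF and probed with target antibodies. Band intensities quantified by densitometry and normalized to GAPDH.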

With `O=C1CCC(N2C(=O)c3cc4c(cc3C2=O)CN(CC2CCC3(CC2)CN(C(=O)c2ccc([C@@H]5c6ccc(O)cc6CC[C@@H]5c5ccccc5)cc2)C3)C4)C(=O)N1` (stereo partly drawn) [Compound B288, 2-(2,6-dioxopiperidin-3-yl)-6-((2-(4-((1R,2S)-6-hydroxy-2-phenyl-1,2,3,4-tetrahydronaphthalen-1-yl)benzoyl)-2-azaspiro[3.5]nonan-7-yl)methyl)-6,7-dihydropyrrolo[3,4-f]isoindole-1,3(2H,5H)-dione] as the compound, how does the DC50 read?
Its DC50 is over 100 nM.

For `O=C1CCC(N2C(=O)c3cc4c(cc3C2=O)CN(CC2CC3(CCN(C(=O)c5ccc([C@@H]6c7ccc(O)cc7CC[C@@H]6c6ccccc6)cc5)CC3)C2)C4)C(=O)N1` (stereo partly drawn) [Compound B289, 2-(2,6-dioxopiperidin-3-yl)-6-((7-(4-((1R,2S)-6-hydroxy-2-phenyl-1,2,3,4-tetrahydronaphthalen-1-yl)benzoyl)-7-azaspiro[3.5]nonan-2-yl)methyl)-6,7-dihydropyrrolo[3,4-f]isoindole-1,3(2H,5H)-dione], which DC50 is on record?
Its DC50 is over 100 nM.

With `O=C1CCC(N2C(=O)c3cc4c(cc3C2=O)CN(CC(=O)N2CCC3(CC2)CCN(C(=O)c2ccc([C@@H]5c6ccc(O)cc6CC[C@@H]5c5ccccc5)cc2)CC3)C4)C(=O)N1` (stereo partly drawn) [Compound B290, 2-(2,6-dioxopiperidin-3-yl)-6-(2-(9-(4-((1R,2S)-6-hydroxy-2-phenyl-1,2,3,4-tetrahydronaphthalen-1-yl)benzoyl)-3,9-diazaspiro[5.5]undecan-3-yl)-2-oxoethyl)-6,7-dihydropyrrolo[3,4-f]isoindole-1,3(2H,5H)-dione] as the compound, how does the DC50 read?
The DC50 was over 100 nM.

Which DC50 does the source give for `O=C1CCC(N2C(=O)c3cc4c(cc3C2=O)CN(CC(=O)N2CCC3(CC2)CN(C(=O)c2ccc([C@@H]5c6ccc(O)cc6CC[C@@H]5c5ccccc5)cc2)C3)C4)C(=O)N1` (stereo partly drawn) [Compound B291, 2-(2,6-dioxopiperidin-3-yl)-6-(2-(2-(4-((1R,2S)-6-hydroxy-2-phenyl-1,2,3,4-tetrahydronaphthalen-1-yl)benzoyl)-2,7-diazaspiro[3.5]nonan-7-yl)-2-oxoethyl)-6,7-dihydropyrrolo[3,4-f]isoindole-1,3(2H,5H)-dione] here?
The DC50 was over 100 nM.

Which DC50 does the source give for `O=C1CCC(N2C(=O)c3cc4c(cc3C2=O)CN(C2CC3CCC(C2)N3CC2CCN(c3ccc([C@@H]5c6ccc(O)cc6CC[C@@H]5c5ccccc5)cc3)CC2)C4)C(=O)N1` (stereo partly drawn) [Compound B292, 2-(2,6-dioxopiperidin-3-yl)-6-(8-((1-(4-((1R,2S)-6-hydroxy-2-phenyl-1,2,3,4-tetrahydronaphthalen-1-yl)phenyl)piperidin-4-yl)methyl)-8-azabicyclo[3.2.1]octan-3-yl)-6,7-dihydropyrrolo[3,4-f]isoindole-1,3(2H,5H)-dione] here?
The DC50 was over 100 nM.

Which DC50 does the source give for `O=C1CCC(N2C(=O)c3cc4c(cc3C2=O)CN(C[C@H]2CC[C@H](C(=O)N3CC(Oc5ccc([C@@H]6c7ccc(O)cc7CC[C@@H]6c6ccccc6)cc5)C3)CC2)C4)C(=O)N1` (stereo partly drawn) [Compound B293, 2-(2,6-dioxopiperidin-3-yl)-6-(((1R,4r)-4-(3-(4-((1R,2S)-6-hydroxy-2-phenyl-1,2,3,4-tetrahydronaphthalen-1-yl)phenoxy)azetidine-1-carbonyl)cyclohexyl)methyl)-6,7-dihydropyrrolo[3,4-f]isoindole-1,3(2H,5H)-dione] here?
The DC50 was 10 to 100 nM.

With `O=C1CCC(N2Cc3cc4c(cc3C2=O)CN(C[C@H]2CC[C@H](C(=O)N3CC(Oc5ccc([C@@H]6c7ccc(O)cc7CC[C@@H]6c6ccccc6)cc5)C3)CC2)C4)C(=O)N1` (stereo partly drawn) [Compound B294, 3-(6-(((1R,4r)-4-(3-(4-((1R,2S)-6-hydroxy-2-phenyl-1,2,3,4-tetrahydronaphthalen-1-yl)phenoxy)azetidine-1-carbonyl)cyclohexyl)methyl)-1-oxo-3,5,6,7-tetrahydropyrrolo[3,4-f]isoindol-2(1H)-yl)piperidine-2,6-dione] as the compound, how does the DC50 read?
Its DC50 is under 10 nM.

For `O=C1CCC(N2Cc3c(ccc4c3OC[C@H]3CN(C(=O)C5CCN(c6ccc([C@@H]7c8ccc(O)cc8CC[C@@H]7c7ccccc7)cc6)CC5)CCN43)C2=O)C(=O)N1` (stereo partly drawn) [Compound B295, 3-((R)-7-(1-(4-((1R,2S)-6-hydroxy-2-phenyl-1,2,3,4-tetrahydronaphthalen-1-yl)phenyl)piperidine-4-carbonyl)-1-oxo-1,3,5,5a,6,7,8,9-octahydro-2H-pyrazino[1′,2′:4,5][1,4]oxazino[2,3-e]isoindol-2-yl)piperidine-2,6-dione], which DC50 is on record?
The DC50 was over 100 nM.

For `O=C1CCC(N2C(=O)c3cc4c(cc3C2=O)CC2(C4)CN(CC3CCN(c4ccc([C@@H]5c6ccc(O)cc6CC[C@@H]5c5ccccc5)cc4)CC3)C2)C(=O)N1` (stereo partly drawn) [Compound B296, 2′-(2,6-dioxopiperidin-3-yl)-1-((1-(4-((1R,2S)-6-hydroxy-2-phenyl-1,2,3,4-tetrahydronaphthalen-1-yl)phenyl)piperidin-4-yl)methyl)-5′,7′-dihydro-1′H-spiro[azetidine-3,6′-cyclopenta[f]isoindole]-1′,3′(2'H)-dione], which DC50 is on record?
Its DC50 is over 100 nM.

Which DC50 does the source give for `O=C1CCC(N2C(=O)c3cc4c(cc3C2=O)CC2(C4)CN(C(=O)C3CCN(c4ccc([C@@H]5c6ccc(O)cc6CC[C@@H]5c5ccccc5)cc4)CC3)C2)C(=O)N1` (stereo partly drawn) [Compound B297, 2′-(2,6-dioxopiperidin-3-yl)-1-(1-(4-((1R,2S)-6-hydroxy-2-phenyl-1,2,3,4-tetrahydronaphthalen-1-yl)phenyl)piperidine-4-carbonyl)-5′,7′-dihydro-1′H-spiro[azetidine-3,6′-cyclopenta[f]isoindole]-1′,3′(2'H)-dione] here?
The DC50 was over 100 nM.

With `O=C1CCC(N2Cc3c(ccc4c3OC[C@H]3CN(CC5CCN(c6ccc([C@@H]7c8ccc(O)cc8CC[C@@H]7c7ccccc7)cc6)CC5)CCN43)C2=O)C(=O)N1` (stereo partly drawn) [Compound B298, 3-((R)-7-((1-(4-((1R,2S)-6-hydroxy-2-phenyl-1,2,3,4-tetrahydronaphthalen-1-yl)phenyl)piperidin-4-yl)methyl)-1-oxo-1,3,5,5a,6,7,8,9-octahydro-2H-pyrazino[1′,2′:4,5][1,4]oxazino[2,3-e]isoindol-2-yl)piperidine-2,6-dione] as the compound, how does the DC50 read?
Its DC50 is 10 to 100 nM.

Which DC50 does the source give for `O=C1CCC(N2C(=O)c3cc4c(cc3C2=O)CC2(C4)CN(C(=O)CN3CC(Oc4ccc([C@@H]5c6ccc(O)cc6CC[C@@H]5c5ccccc5)cc4)C3)C2)C(=O)N1` (stereo partly drawn) [Compound B299, 2′-(2,6-dioxopiperidin-3-yl)-1-(2-(3-(4-((1R,2S)-6-hydroxy-2-phenyl-1,2,3,4-tetrahydronaphthalen-1-yl)phenoxy)azetidin-1-yl)acetyl)-5′,7′-dihydro-1'H-spiro[azetidine-3,6′-cyclopenta[f]isoindole]-1′,3′(2'H)-dione] here?
The DC50 was over 100 nM.

Which DC50 does the source give for `O=C1CCC(N2C(=O)c3cc4c(cc3C2=O)CC2(C4)CN(CC(=O)N3CC(Oc4ccc([C@@H]5c6ccc(O)cc6CC[C@@H]5c5ccccc5)cc4)C3)C2)C(=O)N1` (stereo partly drawn) [Compound B300, 2′-(2,6-dioxopiperidin-3-yl)-1-(2-(3-(4-((1R,2S)-6-hydroxy-2-phenyl-1,2,3,4-tetrahydronaphthalen-1-yl)phenoxy)azetidin-1-yl)-2-oxoethyl)-5′,7′-dihydro-1'H-spiro[azetidine-3,6′-cyclopenta[f]isoindole]-1′,3′(2′H)-dione] here?
Its DC50 is over 100 nM.

With `O=C1CCC(N2Cc3cc4c(cc3C2=O)CN(CC2CN(CC3CCN(c5ccc([C@@H]6c7ccc(O)cc7CC[C@@H]6c6ccccc6)cc5)CC3)C2)C4=O)C(=O)N1` (stereo partly drawn) [Compound B301, 2-(2,6-dioxopiperidin-3-yl)-6-((1-((1-(4-((1R,2S)-6-hydroxy-2-phenyl-1,2,3,4-tetrahydronaphthalen-1-yl)phenyl)piperidin-4-yl)methyl)azetidin-3-yl)methyl)-2,3,6,7-tetrahydropyrrolo[3,4-f]isoindole-1,5-dione] as the compound, how does the DC50 read?
Its DC50 is over 100 nM.

With `O=C1CCC(N2Cc3cc4c(cc3C2=O)CN(C2CN(CC3CCN(c5ccc([C@@H]6c7ccc(O)cc7CC[C@@H]6c6ccccc6)cc5)CC3)C2)C4=O)C(=O)N1` (stereo partly drawn) [Compound B302, 2-(2,6-dioxopiperidin-3-yl)-6-(1-((1-(4-((1R,2S)-6-hydroxy-2-phenyl-1,2,3,4-tetrahydronaphthalen-1-yl)phenyl)piperidin-4-yl)methyl)azetidin-3-yl)-2,3,6,7-tetrahydropyrrolo[3,4-f]isoindole-1,5-dione] as the compound, how does the DC50 read?
The DC50 was over 100 nM.

Which DC50 does the source give for `O=C1CCC(N2Cc3cc4c(cc3C2=O)CN(C2CCN(CC3CCN(c5ccc([C@@H]6c7ccc(O)cc7CC[C@@H]6c6ccccc6)cc5)CC3)CC2)C4=O)C(=O)N1` (stereo partly drawn) [Compound B303, 2-(2,6-dioxopiperidin-3-yl)-6-(1-((1-(4-((1R,2S)-6-hydroxy-2-phenyl-1,2,3,4-tetrahydronaphthalen-1-yl)phenyl)piperidin-4-yl)methyl)piperidin-4-yl)-2,3,6,7-tetrahydropyrrolo[3,4-f]isoindole-1,5-dione] here?
Its DC50 is over 100 nM.

With `O=C1CCC(N2Cc3cc4c(cc3C2=O)C(=O)N(CC2CN(CC3CCN(c5ccc([C@@H]6c7ccc(O)cc7CC[C@@H]6c6ccccc6)cc5)CC3)C2)C4)C(=O)N1` (stereo partly drawn) [Compound B305, 2-(2,6-dioxopiperidin-3-yl)-6-((1-((1-(4-((1R,2S)-6-hydroxy-2-phenyl-1,2,3,4-tetrahydronaphthalen-1-yl)phenyl)piperidin-4-yl)mcthyl)azctidin-3-yl)methyl)-2,3,5,6-tctrahydropyrrolo[3,4-f]isoindole-1,7-dione] as the compound, how does the DC50 read?
The DC50 was over 100 nM.

For `Cn1cc(-c2ccc3c(c2)CC[C@H](c2ccccc2)[C@@H]3c2ccc(N3CCC4(CCN(C(=O)CN5Cc6cc7c(cc6C5)C(=O)N(C5CCC(=O)NC5=O)C7=O)CC4)CC3)cc2)cn1` (stereo partly drawn) [Compound B323, 2-(2,6-dioxopiperidin-3-yl)-6-(2-(9-(4-((1R,2S)-6-(1-methyl-1H-pyrazol-4-yl)-2-phenyl-1,2,3,4-tetrahydronaphthalen-1-yl)phenyl)-3,9-diazaspiro[5.5]undecan-3-yl)-2-oxoethyl)-6,7-dihydropyrrolo[3,4-f]isoindole-1,3(2H,5H)-dione], which DC50 is on record?
The DC50 was over 100 nM.

Which DC50 does the source give for `O=C1CCC(N2C(=O)c3cc4c(cc3C2=O)CN(CC(=O)N2CCC3(CC2)CCN(c2ccc([C@@H]5c6ccc(-c7cn[nH]c7)cc6CC[C@@H]5c5ccccc5)cc2)CC3)C4)C(=O)N1` (stereo partly drawn) [Compound B324, 2-(2,6-dioxopiperidin-3-yl)-6-(2-oxo-2-(9-(4-((1R,2S)-2-phenyl-6-(1H-pyrazol-4-yl)-1,2,3,4-tetrahydronaphthalen-1-yl)phenyl)-3,9-diazaspiro[5.5]undecan-3-yl)ethyl)-6,7-dihydropyrrolo[3,4-f]isoindole-1,3(2H,5H)-dione] here?
The DC50 was over 100 nM.
